According to US20250339569A1, “CARBONIC ANHYDRASE IX LIGANDS” (priority 2021, published 2025):
Where two headings read alike, the source gives them in different places. One block for each compound: values may come before it. Starred links: 1 amine or outer side, 2 acyl side, 3 side chain; linkers in the order of their positions; H or OH if unused. Positions of bridges follow the written chain, without caps; N, C: chain ends. Non-standard residues stand in square brackets, D forms with d. Residues, ends and D or L forms follow the SMILES beside them. *: point of attachment. Phe(3-NHCO(CH2)3SO2NH2) = N[C@@H](Cc1cccc(NC(=O)CCCS(N)(=O)=O)c1)C(=O)O; DOTA = O=C(O)CN1CCN(CC(=O)O)CCN(CC(=O)*)CCN(CC(=O)O)CC1; mXylylene = c1cc(C[*:1])cc(C[*:2])c1; X2 = O=C(CN1CCC(N[*:1])CC1)[*:2]; Dap = NC[C@H](N)C(=O)O

Assays:
[1] = Biodistribution study (SPECT/CT) in SK-RC-52 tumor-bearing mice with or without gelofusine; type: in vivo, NMRI nude mice; conditions: female, NMRI nude, mouse, in vivo, iv, total radioactivity
Procedure: (§1) The effect on tumor uptake of prior injection of gelofusine for kidney protection was investigated in mice bearing the SK-RC-52 tumor. Biodistribution was evaluated using in vivo SPECT/CT imaging. Prior to the in vivo study the compounds (ligands) were initially radiolabeled with In-111 and the stability of radiolabeled compounds was evaluated in buffer at three different timepoints.
(§2) The study was performed in female NMRI nude mice (approximately 6 weeks of age) from Janvier Labs, France, housed up to 5 mice per cage.
(§3) The column was washed with 2 mL water, and then the final product was eluted from the column in EtOH solution (50%) • The sample was formulated in PBS to the final concentration of 150 MBq/mL and 5 nmol/mL.
(§4) SK-RC-52 cells were cultured in RPMI 1640 with GlutaMax-I (Thermo Fisher Scientific #61870044) supplemented with 10% fetal bovine serum+1% penicillin/streptomycin, harvested, washed twice in RPMI 1640 and resuspended at 2×10^7 cells/mL in RPMI 1640. HT-29 cells were cultured in McCoy's 5a Medium Modified (Sigma #M9309). For inoculation of HT-29 cells, cells were harvested, washed twice in PBS and resuspended at 5×10^7 cells/mL in PBS. Cells were kept on ice until inoculation.
(§5) Animals were anaesthetized (isoflurane, 2-4% in ambient air supplemented with 100% 02) prior to tumor inoculation. The tumor cells (100 μL suspension of either SK-RC-52 cells (2×10^6 cells/animal) or HT-29 cells (5×10^6 cells/animal)) were subcutaneously inoculated in the right flank using a 1-mL syringe equipped with a 27 G needle. Tumor growth and animal weight were measured twice per week. Tumor size was measured by caliper and the volume was estimated using the following formula: 0.52×(length×width^2). When tumor sizes reached 150-250 mm^3, animals were randomized into groups (n=3) of similar average tumor volume and body weight.
(§6) Animals were injected intravenously with In-111-labeled compounds (single bolus, 22.3-31.2 MBq, ˜1 nmol ligand, injection volume: 100 μL) in the lateral tail vein using a 29 G syringe.
(§7) CT was performed with helical scan, 300 ms exposure, reconstruction resolution of 250 μm. SPECT was performed with multi-pinhole scan and a 30 s frame time. For the quantification of the radioactivity uptake, regions of interests (ROIs) were drawn over the tumor, kidney, liver, and heart (estimate of blood) identified on the images. Uptake was expressed as percent of injected dose per gram tissue (% ID/g).

SK-RC-52 tumor = test: as above; type: in vivo, NMRI nude mice; conditions: mouse, in vivo
Procedure: as §1, §2, §3, §4, §5, §6, §7

[2] = Biodistribution study (SPECT/CT) in HT-29 tumor-bearing mice; type: in vivo, NMRI nude mice; conditions: female, NMRI nude, mouse, in vivo, iv, total radioactivity
Procedure: as §1, §2, §3, §4, §5, §6, §7

HT-29 tumor = test: as above; type: in vivo, NMRI nude mice; conditions: mouse, in vivo
Procedure: as §1, §2, §3, §4, §5, §6, §7

[3] = target: T1, CAIX-expressing human HT-29 colorectal cancer cells (Homo sapiens, UniProt Q16790); test: FACS binding assay (IC50 determination, competition with tracer 3BP-2776 or 3BP-4149); conditions: FACS binding assay, HT-29 cells, 4° C., 1 hour, read-out: pIC50 category (activity) (converted)
T1 construct: CAIX-expressing human HT-29 colorectal cancer cells; host or cells: HT-29 human colorectal cancer cells
How it was run: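 HT-29 cells in FACS buffer (PBS, 1% FCS) at 500.000 cells/ml were exposed to compounds competing with a labelled tracer, with biotinylated compounds detected by 1 μg/mL APC-streptavidin for 30 min on ice. APC/Cy5 median fluorescence was read by flow cytometry and IC50 derived by 4PL fit.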

[4] = target: T2, human carbonic anhydrase IX (hCAIX-Fc) (Homo sapiens, UniProt Q16790); test: Surface plasmon resonance assay with hCAIX-Fc; type: binding; conditions: 25° C.; for t1/2 category (activity): SPR dissociation half-life, hCAIX-Fc; for Kd: SPR, hCAIX-Fc captured, read-out: pKD category (activity) (converted)
T2 construct: purchased SinoBliological (Sino Biological) 10107-H02H

[5] = mouse, plasma, 24 h
CAIV (hCAIV-bio) = target: T3, CAIV (hCAIV-bio) (Homo sapiens, UniProt P22748); test: SPR selectivity assay with biotinylated CAIV; type: binding; conditions: SPR, biotinylated CAIV; read-out: pKD category (affinity) CAIV (converted)
T3 construct: purchased SinoBliological (Sino Biological) 10472-1H081H
T3 sequence (P22748 19-284): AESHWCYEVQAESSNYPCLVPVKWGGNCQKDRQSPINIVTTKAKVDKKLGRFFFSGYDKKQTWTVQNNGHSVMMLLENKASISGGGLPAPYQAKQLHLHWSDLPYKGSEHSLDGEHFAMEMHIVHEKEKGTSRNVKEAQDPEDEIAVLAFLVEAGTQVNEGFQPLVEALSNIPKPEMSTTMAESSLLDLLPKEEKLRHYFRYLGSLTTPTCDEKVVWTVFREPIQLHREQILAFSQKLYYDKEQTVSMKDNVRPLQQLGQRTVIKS
Procedure: (§8) In order to test selectivity of CAIX-binding peptides toward CAIV (SinoBliological, Cat #10472-1H081H), CAXII (SinoBliological, Cat #10617-H08H or CAXIV (SinoBliological, Cat #10458-H08H), SPR assays were performed analog to the assay described above but with a different target capture procedure. For immobilization, the carbonic anhydrases were biotinylated and capture on the SPR chip using the Biotin CAPture Kit (cytiva) according to the manufacturer instructions using HBSTE, 0.1% as Running Buffer.
(§9) Table 13 describes the protocol steps for biotinylated target capturing and assessment of the binding kinetics.

CAXII (hCAXII-bio) = target: T4, CAXII (hCAXII-bio) (Homo sapiens, UniProt O43570); test: SPR selectivity assay with biotinylated CAXII; type: binding; conditions: SPR, biotinylated CAXII; read-out: pKD category (affinity) CAXII (converted)
T4 construct: purchased SinoBliological (Sino Biological) 10617-H08H
T4 sequence (O43570 25-354): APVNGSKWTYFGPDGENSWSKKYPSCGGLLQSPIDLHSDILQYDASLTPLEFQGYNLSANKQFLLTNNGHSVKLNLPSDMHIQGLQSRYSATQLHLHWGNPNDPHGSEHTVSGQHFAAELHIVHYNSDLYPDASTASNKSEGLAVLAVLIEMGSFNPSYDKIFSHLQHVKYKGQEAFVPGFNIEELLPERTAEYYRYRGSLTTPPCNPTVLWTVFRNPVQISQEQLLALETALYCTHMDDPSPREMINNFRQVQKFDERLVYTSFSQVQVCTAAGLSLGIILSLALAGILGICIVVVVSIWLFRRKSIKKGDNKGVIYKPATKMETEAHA
Procedure: as §8, §9

CAXIV (hCAXIV-bio) = target: T5, CAXIV (hCAXIV-bio) (Homo sapiens, UniProt Q9ULX7); test: SPR selectivity assay with biotinylated CAXIV; type: binding; conditions: SPR, biotinylated CAXIV; read-out: pKD category (affinity) CAXIV (converted)
T5 construct: purchased SinoBliological (Sino Biological) 10458-H08H
T5 sequence (Q9ULX7 16-337): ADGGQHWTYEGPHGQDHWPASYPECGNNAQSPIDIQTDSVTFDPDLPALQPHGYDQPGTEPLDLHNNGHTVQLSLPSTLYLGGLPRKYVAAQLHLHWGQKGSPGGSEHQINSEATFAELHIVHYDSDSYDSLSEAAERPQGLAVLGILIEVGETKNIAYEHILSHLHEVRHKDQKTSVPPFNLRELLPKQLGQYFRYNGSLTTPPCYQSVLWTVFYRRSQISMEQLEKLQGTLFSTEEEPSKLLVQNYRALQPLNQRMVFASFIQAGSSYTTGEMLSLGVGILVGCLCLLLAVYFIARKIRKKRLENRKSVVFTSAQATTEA
Procedure: as §8, §9

[6] = Plasma stability assay, mouse plasma; conditions: mouse plasma, 37°C, 24 h
[7] = Tumor/Blood uptake ratio at 4 h p.i.
[8] = Tumor/Liver uptake ratio at 4 h p.i.

Compound: CC(C)C[C@@H]1NC(=O)[C@H](Cc2ccc(NC(=O)CCS(N)(=O)=O)cc2)NC(=O)[C@H](CC(=O)O)NC(=O)[C@H]2CCCN2C(=O)[C@H](CCC(=O)O)NC(=O)[C@@H](NC(=O)[C@H](CCC(N)=O)NC(=O)CN2CCN(CC(=O)O)CCN(CC(=O)O)CCN(CC(=O)O)CC2)CSCc2cccc(c2)CSC[C@@H](C(N)=O)NC(=O)[C@H](CO)NC(=O)[C@H](Cc2c[nH]c3ccccc23)NC(=O)[C@H]([C@@H](C)O)NC1=O [DPI-4501, DOTA-Gln-[Cys(3MeBn)-Glu-pro-Asp-Aph(SaPr)-Leu-Thr-Trp-Ser-Cys]-NH2]
tissue uptake at 4 h ([1]; Blood uptake at 4 h p.i.): 0.05 ± 0.01 %ID/g | tissue uptake at 4 h ([1]; Liver uptake at 4 h p.i.): 0.08 ± 0.01 %ID/g | tissue uptake ([1]; Peak Tumor Uptake): 7.17 ± 1.92 %ID/g | tissue to tissue ratio at 4 h [1, 7]: 128 ± 20.3 | tissue to tissue ratio at 4 h [1, 8]: 70.2 ± 17 | Peak Tumor Uptake (SK-RC-52 tumor; female, NMRI nude, iv): 6.01 ± 0.39 % ID/g | Blood uptake at 4 h p.i. (SK-RC-52 tumor; female, NMRI nude, iv, 4 h): 0.03 ± 0.003 % ID/g | Liver uptake at 4 h p.i. (SK-RC-52 tumor; female, NMRI nude, iv, 4 h): 0.07 ± 0.01 % ID/g | Tumor/Blood uptake ratio at 4 h p.i. (SK-RC-52 tumor; female, NMRI nude, iv, 4 h): 178.6 ± 39.3 | Tumor/Liver uptake ratio at 4 h p.i. (SK-RC-52 tumor; female, NMRI nude, iv, 4 h): 81.4 ± 14.0 | Time to peak uptake in tumor (SK-RC-52 tumor): 1 h | tissue uptake at 4 h ([2]; Blood uptake at 4 h p.i.): 0.04 ± 0.005 %ID/g | tissue uptake at 24 h ([2]; Kidney uptake at 24 h p.i.): 2.16 ± 0.36 %ID/g | tissue uptake at 4 h ([2]; Liver uptake at 4 h p.i.): 0.12 ± 0.01 %ID/g | tissue uptake ([2]; Peak Kidney uptake): 5.61 ± 0.57 %ID/g | tissue uptake ([2]; Peak Tumor Uptake): 3.81 ± 0.26 %ID/g | tissue to tissue ratio at 4 h [2, 7]: 104 ± 10.2 | tissue to tissue ratio at 4 h [2, 8]: 29.8 ± 2.5 | tissue to tissue ratio at 24 h ([2]; Tumor/kidney uptake ratio at 24 h p.i.): 1.5 ± 0.1 | Time to peak uptake in tumor (HT-29 tumor): 2 h | % remaining tumor uptake at 24 h p.i. (HT-29 tumor; 24 h): 80 ± 4.4%

IC50 ([3]; competition with tracer 3BP-4149 (3 nM, Cy5-labeled)): < 10 nM | t1/2 category (activity) [4]: A (t1/2>15.0 minutes) | Kd [4]: < 10 nM | % intact compound remaining (incubation time) [5]: >95%
Compound: CC(C)C[C@@H]1NC(=O)[C@H](Cc2cccc(NC(=O)CCCS(N)(=O)=O)c2)NC(=O)[C@H](CC(=O)O)NC(=O)[C@H]2CCCN2C(=O)[C@H](CCC(=O)O)NC(=O)[C@@H](NC(=O)[C@H](Cc2ccc(O)cc2)NC(=O)[C@@H](NC(=O)CN2CCC(NC(=O)CN3CCN(CC(=O)O)CCN(CC(=O)O)CCN(CC(=O)O)CC3)CC2)C(C)C)CSCc2cccc(c2)CSC[C@@H](C(N)=O)NC(=O)[C@H](CO)NC(=O)[C@H](Cc2c[nH]c3ccccc23)NC(=O)[C@H]([C@@H](C)O)NC1=O [3BP-4369] ({DOTA}-[X2]VYCE[dP]D[Phe(3-NHCO(CH2)3SO2NH2)]LTWSC-NH2; linker 4-13 via mXylylene)

IC50 ([3]; competition with tracer 3BP-2776 (10 nM, biotin-labeled)): < 10 nM | t1/2 category (activity) [4]: A (t1/2>15.0 minutes) | Kd [4]: < 10 nM | Kd (CAIV (hCAIV-bio)): > 1000 nM | Kd (CAXII (hCAXII-bio)): > 1000 nM | Kd (CAXIV (hCAXIV-bio)): > 1000 nM | % intact compound remaining (incubation time) [6]: >95%
Compound: CC(C)C[C@@H]1NC(=O)[C@H](Cc2c[nH]c3ccccc23)NC(=O)[C@H](CC(=O)O)NC(=O)[C@H]2CCCN2C(=O)[C@H](CCC(=O)O)NC(=O)[C@@H]2CSCc3cccc(c3)CSC[C@@H](C(N)=O)NC(=O)[C@H](CNC(=O)C[C@H](NC(=O)[C@@H](NC(=O)CN3CCC(NC(=O)CN4CCN(CC(=O)O)CCN(CC(=O)O)CCN(CC(=O)O)CC4)CC3)C(C)C)C(=O)N2)NC(=O)[C@H](Cc2c[nH]c3ccccc23)NC(=O)[C@H]([C@@H](C)O)NC1=O [3BP-4174, DOTA-APAc-Val-{Asp-[Cys(3MeBn)-Glu-pro-Asp-Trp-Leu-Thr-Trp-Dap}-Cys]-NH2] ({DOTA}-[X2]VDCE[dP]DWLTW[Dap]C-NH2; lactam 3-12; linker 4-13 via mXylylene)
